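Cells were grown in 96-well plates and exposed to each compound for 48 hours at five concentrations; endpoints were interpolated linearly between bracketing concentrations, or set to the highest concentration if not reached. GI50 is the concentration that inhibits growth by half. TGI denotes the concentration required for complete inhibition of growth.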
Legend:
Experiment in all cases: NCI-60 cell line screen, 48 h
[1] = test system: A498 renal
[2] = test system: ACHN renal
[3] = test system: CCRF-CEM leukemia
[4] = test system: KM12 colon
[5] = test system: MDA-MB-435
[6] = test system: MOLT-4 leukemia
[7] = test system: NCI-H23 lung
[8] = test system: PC-3 prostate
[9] = test system: SK-OV-3 ovarian
[10] = test system: EKVX NSCLC

Cn1cc(C2=C(c3cn(C)c4cc(N)ccc34)C(=O)NC2=O)c2ccccc21
GI50 [1]: 0.944 µM | TGI [1]: 7.54 µM | GI50 [2]: 2.59 µM | TGI [2]: 12.1 µM | GI50 [3]: 1.02 µM | TGI [3]: > 11.2 µM | GI50 [4]: 1.45 µM | TGI [4]: 11.8 µM | GI50 [5]: 0.112 µM | TGI [5]: > 21.2 µM | GI50 [6]: 2.26 µM | TGI [6]: > 18.7 µM | GI50 [7]: 3.72 µM | TGI [7]: 11.8 µM | GI50 [8]: 2.92 µM | TGI [8]: > 20.6 µM | GI50 [9]: 2.25 µM | TGI [9]: > 25 µM

Nc1ccc(C(=O)CC2(O)C(=O)Nc3c(Cl)cc(Cl)cc32)cc1 (stereo not given)
TGI [1]: > 100 µM | TGI [2]: > 100 µM | TGI [3]: > 100 µM | TGI [10]: > 100 µM | TGI [4]: > 100 µM | TGI [6]: > 100 µM | TGI [7]: > 100 µM | TGI [9]: > 100 µM

COc1ccc(N2C(=O)C3c4[nH]c5ccccc5c4C4CCCCCCC4C3C2=O)cc1 (stereo not given)
TGI [1]: 52.3 µM | TGI [2]: 18.7 µM | TGI [3]: 21.5 µM | TGI [10]: 41.4 µM | TGI [4]: > 100 µM | TGI [6]: 37.9 µM | TGI [7]: 31.2 µM | TGI [9]: 33.2 µM

CCOC(=O)c1c(-c2ccccc2)c(C(OC(c2ccccc2)c2c(-c3ccccc3)c(C(=O)OCC)n3ccccc23)c2ccccc2)c2ccccn12 (stereo not given)
TGI [2]: > 100 µM | TGI [3]: > 100 µM | TGI [10]: > 100 µM | TGI [4]: > 100 µM | TGI [6]: > 100 µM | TGI [7]: > 100 µM | TGI [9]: > 100 µM

COc1cc(C2c3cc4c(cc3[C@@H](N(C)C)[C@H]3COC(=O)C23)OCO4)cc(OC)c1O (stereo not given in full)
TGI [1]: 56 µM | TGI [2]: > 100 µM | TGI [3]: > 100 µM | TGI [10]: > 100 µM | TGI [4]: > 100 µM | TGI [6]: > 100 µM | TGI [7]: > 100 µM | TGI [9]: > 100 µM

COc1ccccc1NC(=O)C1=C(C)NC(C)=C(C(=O)Nc2ccccc2OC)C1c1ccc(N(C)C)cc1
TGI [1]: > 100 µM | TGI [2]: > 100 µM | TGI [3]: 52.4 µM | TGI [10]: > 100 µM | TGI [4]: 56.9 µM | TGI [6]: 64.5 µM | TGI [7]: 82.3 µM | TGI [9]: 84.5 µM

COC(=O)C1Cc2c([nH]c3ccccc23)C(c2ccccc2O)N1Cc1ccccc1 (stereo not given)
TGI [1]: 37.8 µM | TGI [2]: 39.9 µM | TGI [3]: > 46.4 µM | TGI [10]: > 31.6 µM | TGI [4]: > 31.6 µM | TGI [6]: > 46.4 µM | TGI [7]: > 46.4 µM | TGI [9]: 40.1 µM

CC1=NOC(=O)C1N=Nc1ccc(Br)c(C)c1 (stereo not given)
TGI [1]: 36.2 µM | TGI [2]: 32 µM | TGI [3]: 34.3 µM | TGI [10]: 32 µM | TGI [4]: 78 µM | TGI [6]: 45.3 µM | TGI [7]: 44.2 µM | TGI [9]: 97.8 µM

CN1C(=O)C2C=CC1C1CCC2N(C)C1=O (stereo not given)
TGI [1]: > 100 µM | TGI [3]: > 100 µM | TGI [10]: > 100 µM | TGI [4]: > 100 µM | TGI [6]: > 100 µM | TGI [7]: > 100 µM | TGI [9]: > 100 µM

COC(=O)[C@]1(C)C(OC)=CC(=O)C2C1[C@H]1CCC[C@@H]21 (stereo not given in full)
TGI [1]: > 100 µM | TGI [2]: > 100 µM | TGI [3]: > 100 µM | TGI [10]: > 100 µM | TGI [4]: > 100 µM | TGI [6]: > 100 µM | TGI [7]: > 100 µM | TGI [9]: > 100 µM

CCOC(=O)c1c2c(n(Cc3ccccc3)c1C)-c1nc(Cc3ccccc3)[nH]c1C(=O)C2=O
GI50 [1]: 1.74 µM | TGI [1]: 3.17 µM | GI50 [2]: 1.64 µM | TGI [2]: 3 µM | GI50 [3]: 0.962 µM | TGI [3]: 2.97 µM | GI50 [10]: 1.84 µM | TGI [10]: 3.27 µM | GI50 [4]: 1.83 µM | TGI [4]: 3.83 µM | GI50 [6]: 2.13 µM | TGI [6]: 5.41 µM | GI50 [7]: 1.82 µM | TGI [7]: 3.59 µM | GI50 [8]: 1.45 µM | TGI [8]: 3.2 µM | GI50 [9]: 2.31 µM | TGI [9]: 5.19 µM

COC(=O)C(CC(=O)c1c[nH]c2ccccc12)c1c[nH]c2ccccc12 (stereo not given)
TGI [1]: 40 µM | TGI [2]: 37.7 µM | TGI [3]: 73.7 µM | TGI [10]: 74.1 µM | TGI [4]: > 10 µM | TGI [6]: 46.7 µM | TGI [7]: 34 µM | TGI [9]: 69.9 µM

Clc1ccc2c(c1)[nH]c1c2nc2sccn21
TGI [1]: > 100 µM | TGI [2]: > 100 µM | TGI [3]: > 100 µM | TGI [10]: > 100 µM | TGI [4]: > 100 µM | TGI [6]: > 100 µM | TGI [7]: > 100 µM | TGI [9]: > 100 µM

COc1cc(/C=C/c2ccc(OC)c(OC)c2OC)cc(OC)c1OC
TGI [1]: > 73.9 µM | TGI [2]: > 92.2 µM | TGI [3]: 85.8 µM | TGI [10]: > 70.8 µM | TGI [4]: 57.3 µM | TGI [6]: > 62 µM | TGI [7]: 69.2 µM | TGI [9]: 57.6 µM

ClCc1ccc(C2OCCO2)cc1
TGI [1]: 45.3 µM | TGI [2]: > 62 µM | TGI [3]: > 69.7 µM | TGI [10]: > 63 µM | TGI [4]: 18.4 µM | TGI [6]: 45.6 µM | TGI [7]: 17.2 µM | TGI [9]: > 82 µM

CC[C@H](Nc1nc(N)nc(C2CC2)c1C#N)c1nc2cccc(NCc3ccc(C(=O)NO)cc3)c2c(=O)n1-c1ccccc1
GI50 [1]: 1.7 µM | TGI [1]: 3.69 µM | GI50 [2]: 1.85 µM | TGI [2]: 4.58 µM | GI50 [3]: 0.734 µM | TGI [3]: > 100 µM | GI50 [10]: 1.75 µM | TGI [10]: 3.73 µM | GI50 [4]: 2.07 µM | TGI [4]: 4.69 µM | GI50 [6]: 2.2 µM | TGI [6]: 10.9 µM | GI50 [7]: 1.98 µM | TGI [7]: 4.48 µM | GI50 [8]: 2.11 µM | TGI [8]: 14.6 µM | GI50 [9]: 1.9 µM | TGI [9]: 4.38 µM

COc1cc(C2c3cc4c(cc3[C@@H](OCCN(C)C)C3COC(=O)[C@H]23)OCO4)cc(OC)c1O (stereo not given in full)
TGI [1]: 0.713 µM | TGI [2]: 0.197 µM | TGI [10]: 6.07 µM | TGI [4]: 2.75 µM | GI50 [6]: 0.0105 µM | TGI [6]: 0.0878 µM | TGI [7]: 1.18 µM | TGI [9]: 1.6 µM

O=c1cc(-c2ccccn2)[nH]c2cc(F)ccc12
TGI [2]: > 100 µM | TGI [10]: > 100 µM | TGI [4]: > 100 µM | TGI [6]: > 100 µM | TGI [7]: > 100 µM | TGI [9]: > 100 µM

COc1ccc(/C=C\c2cc(OC)c(OC)c(OC)c2)c(NS(=O)(=O)c2ccc(Cl)cc2)c1O
GI50 [1]: 0.0229 µM | TGI [1]: 0.422 µM | GI50 [2]: 0.0838 µM | TGI [2]: 30.7 µM | GI50 [3]: 0.159 µM | TGI [3]: > 100 µM | GI50 [4]: 0.127 µM | TGI [4]: 12.8 µM | GI50 [5]: 0.0222 µM | TGI [5]: 0.0525 µM | GI50 [6]: 0.315 µM | TGI [6]: 83.3 µM | GI50 [7]: 0.288 µM | TGI [7]: 42.4 µM | GI50 [8]: 0.153 µM | TGI [8]: > 100 µM | GI50 [9]: 0.229 µM | TGI [9]: 24.3 µM

COc1cc2c3c(ncc2c(OC)c1OC)-c1cc2c(cc1C3)OCO2
GI50 [2]: 20.7 µM | TGI [2]: 47.2 µM | GI50 [10]: 17.2 µM | TGI [10]: 73.9 µM | GI50 [4]: > 100 µM | TGI [4]: > 100 µM | GI50 [5]: > 100 µM | TGI [5]: > 100 µM | GI50 [8]: > 100 µM | TGI [8]: > 100 µM | GI50 [9]: 21.6 µM | TGI [9]: 61.4 µM

From PubChem BioAssay (NCI)
